Measurements published in US7128898B2, “Method of minimizing cell lysis and toothpaste and mouthwash with reduced irritancy” (priority 1999, dated 2006).

System: red blood cells
Assay: Red blood cell haemolysis assay
Format: cell-based
From the text: In order to determine the relative toxicity or irritancy levels of various toothpastes and mouthwashes, a red blood cell heamolysis assay was employed to obtain information on the effects of these substances on cell membrane integrity. The Red Blood Cell assay provides a simple test system that uses easily obtainable cells and is characterized by defined and objective endpoints. […] Haemoglobin release is a useful endpoint of cell membrane integrity. It is therefore highly suitable as a screening assay in a first-order in vitro test battery for the assessment of potential toxicity to tissue, including tissues of the oral cavity.
To assess the membranolytic activity of test materials. The test materials are incubated with isolated red blood cells. The degree of damage to the red blood cell membrane is quantified by spectro-photometric measurement of released haemoglobin.
Red blood cells are isolated concentrations of the test materials defined from results of a range finding study; released is measured at 541 nm and the concentration resulting in 50% hemolysis (relative to a totally lysed sample) calculated. […]
(b) After the final centrifugation, the packed cell volume is diluted with phosphate buffered saline (PBS) to give an approximate 2% erythrocyte suspension. […] The exact volume of PBS required for a 2% suspension is calculated from the optical density and adjusted accordingly. […]

| Structure (SMILES) | % Hemolysis (Individual Components) (0.05% CPC) | % Hemolysis (Individual Components) (0.10% DHA) |
| --- | --- | --- |
| CCCCCCCCCCCCCCCC[n+]1ccccc1 [CPC, Cetylpyridinium Chloride] | 92.36% |  |
| CC(=O)C1C(=O)C=C(C)OC1=O (centres unmarked) [DHA, dehydroacetic acid] |  | 3.24% |
